The results in this text go back to US20230416330A1, “Optimized GIP Peptide Analogues” (Antag Therapeutics ApS, priority 2019, published 2023).

Each structure is given as a SMILES string. pIC50: −log10 of the molar value. Starred links: 1 amine or outer side, 2 acyl side, 3 side chain; linkers in the order of their positions; H or OH if unused. Non-standard residues stand in square brackets, D forms with d. Residues, ends and D or L forms follow the SMILES beside them. Groups on a side chain read outwards from the residue. *: point of attachment. C18 diacid = O=C(O)CCCCCCCCCCCCCCCCC(=O)*; C16 diacid = O=C(O)CCCCCCCCCCCCCCC(=O)*; γGlu = O=C(O)[C@H](CCC(=O)[*:2])N[*:1]; Nle = CCCC[C@H](N)C(=O)O; AEEA = NCCOCCOCC(=O)O; Aib = CC(C)(N)C(=O)O

The nature of data set [1]: Physical stability: fibril formation in Thioflavin T (ThT) assay with agitation. It is filed as physicochemical. Particulars: 25° C., agitation. In a few lines: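 Read-out is continuous ThT fluorescence at 486 nm, with lag time taken where signal reaches 10% between pre- and post-transition baselines. Filtered samples (1, 5, 7.5 or 15 mg/ml; pH 7.4 phosphate buffer or NaOH-adjusted water) were stressed at 25° C. by orbital rotation at 300 rpm with one silica bead per well.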

The nature of data set [2]: Solubility by visual inspection of peptide solutions. The format is physicochemical. In a few lines:
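Solubility scored by eye: clear, colorless appearance after gentle mixing. Samples prepared at 1, 5, 7.5 or 15 mg/ml in either pH 7.4 water (NaOH-adjusted) or 50 mM sodium phosphate buffer, pH 7.4.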

For the next data set, the target named is T1, human GIP receptor (Homo sapiens, UniProt P48546).
T1 construct: host or cells: HEK-293 cells, transient transfection (Lipofectamine 2000), cDNA in pCMV-Script vector
T1 sequence (P48546 22-466): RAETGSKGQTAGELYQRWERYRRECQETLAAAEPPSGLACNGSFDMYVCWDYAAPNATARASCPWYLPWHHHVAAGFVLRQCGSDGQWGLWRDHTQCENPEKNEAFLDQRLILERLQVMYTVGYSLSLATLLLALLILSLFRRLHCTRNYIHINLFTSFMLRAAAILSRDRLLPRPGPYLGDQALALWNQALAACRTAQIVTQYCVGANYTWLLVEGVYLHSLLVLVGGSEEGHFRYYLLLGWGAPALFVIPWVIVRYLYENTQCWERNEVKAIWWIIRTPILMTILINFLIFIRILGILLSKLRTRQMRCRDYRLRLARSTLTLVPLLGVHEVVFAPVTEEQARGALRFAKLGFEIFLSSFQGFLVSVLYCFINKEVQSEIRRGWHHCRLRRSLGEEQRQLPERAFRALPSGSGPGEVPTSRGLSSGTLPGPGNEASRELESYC
Briefly: cAMP assay Alternative 1 (CisBio assay), GIPR antagonism. The format is cell-based. The conditions noted are these: Table 2B; for cAMP antagonism % inhib: % inhibition of Emax. In a few lines:
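HEK293 cells transiently transfected with hGIPR, compounds diluted in HBSS/HEPES/pluronic/casein with 500 uM IBMX; decrease in intracellular cAMP read by HTRF (665/620 nm) and converted via cAMP standard curve. pIC50 from four-parameter fit; agonism tested separately after 30 min at 37° C.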

`CC[C@H](C)[C@H](NC(=O)[C@H](CCCCN)NC(=O)[C@H](CCC(=O)O)NC(=O)[C@H](CC(C)C)NC(=O)C(C)(C)NC(=O)[C@@H](NC(=O)[C@H](CO)NC(=O)[C@H](Cc1ccc(O)cc1)NC(=O)[C@H](CCC(=O)O)NC(=O)[C@H](CO)NC(=O)[C@@H](NC(=O)[C@H](Cc1ccccc1)NC(=O)[C@@H](NC(=O)CNC(=O)[C@@H](N)CCC(=O)O)[C@@H](C)O)[C@@H](C)CC)[C@@H](C)CC)C(=O)N[C@@H](CCCCNC(=O)COCCOCCNC(=O)COCCOCCNC(=O)CC[C@H](NC(=O)CCCCCCCCCCCCCCCCC(=O)O)C(=O)O)C(=O)N[C@@H](CCC(N)=O)C(=O)N[C@@H](CCC(N)=O)C(=O)N[C@@H](CCC(=O)O)C(=O)N[C@@H](Cc1ccccc1)C(=O)N[C@H](C(=O)N[C@@H](CCC(=O)O)C(=O)N[C@@H](Cc1c[nH]c2ccccc12)C(=O)N[C@@H](CC(C)C)C(=O)N[C@@H](CC(C)C)C(=O)N[C@@H](C)C(=O)N[C@@H](CCC(N)=O)C(=O)N[C@@H](CCCCN)C(=O)N1CCC[C@H]1C(=O)N[C@@H](CO)C(=O)N[C@@H](CO)C(=O)NCC(=O)N[C@@H](C)C(=O)N1CCC[C@H]1C(=O)N1CCC[C@H]1C(=O)N1CCC[C@H]1C(=O)N[C@@H](CO)C(=O)O)C(C)C` [AT695] (H-EGTFISEYSI[Aib]LEKIK([AEEA-AEEA-γGlu-C18 diacid])QQEFVEWLLAQKPSSGAPPPS-OH; N-terminus assumed): the “Avr lag time (h)” value in data set [1] (1 mg/ml, TFA, Phosphate (7.4)) was “fnd (Fnd = fibrils not detected within experiment time (96 hours) with agitation.)”; in data set [1] (5 mg/ml, Na, MilliQ (8)) it was “fnd (Fnd = fibrils not detected within experiment time (96 hours) with agitation.)”. Moreover, the Visual appearance entry is given as “Clear” in data set [2] (1 mg/ml, TFA, Phosphate (7.4)) and “Clear” in data set [2] (5 mg/ml, Na, MilliQ (8)). Besides, at human GIP receptor, the “cAMP antagonism % inhib” value came out at 98%. For the same molecule, the pIC50 at human GIP receptor (HEK-293 cells transiently expressing hGIPR, agonist GIP1-42 at EC50, read-out: cAMP antagonism) was 9.10.

Regarding `CC[C@H](C)[C@H](NC(=O)[C@H](CO)NC(=O)[C@H](Cc1ccc(O)cc1)NC(=O)[C@H](CC(=O)O)NC(=O)[C@H](CO)NC(=O)[C@@H](NC(=O)[C@H](Cc1ccccc1)NC(=O)[C@@H](NC(=O)CNC(=O)[C@@H](N)CCC(=O)O)[C@@H](C)O)[C@@H](C)CC)C(=O)N[C@@H](C)C(=O)N[C@@H](CC(C)C)C(=O)N[C@@H](CC(=O)O)C(=O)N[C@@H](CCCCN)C(=O)N[C@H](C(=O)N[C@@H](CCCCNC(=O)CCCCCCCCCCCCCCC(=O)O)C(=O)N[C@@H](CCC(N)=O)C(=O)N[C@@H](CCC(N)=O)C(=O)N[C@@H](CC(=O)O)C(=O)N[C@@H](Cc1ccccc1)C(=O)N[C@H](C(=O)N[C@@H](CCC(=O)O)C(=O)N[C@@H](Cc1c[nH]c2ccccc12)C(=O)N[C@@H](CC(C)C)C(=O)N[C@@H](CC(C)C)C(=O)N[C@@H](C)C(=O)N[C@@H](CCC(N)=O)C(=O)N[C@@H](CCCCN)C(=O)N1CCC[C@H]1C(=O)N[C@@H](CO)C(=O)N[C@@H](CO)C(=O)NCC(=O)N[C@@H](C)C(=O)N1CCC[C@H]1C(=O)N1CCC[C@H]1C(=O)N1CCC[C@H]1C(=O)N[C@@H](CO)C(=O)O)C(C)C)[C@@H](C)CC` [AT668] (H-EGTFISDYSIALDKIK(C16 diacid)QQDFVEWLLAQKPSSGAPPPS-OH; N-terminus assumed), the “Avr lag time (h)” value in data set [1] (1 mg/ml, TFA, Phosphate (7.4)) was “fnd (Fnd = fibrils not detected within experiment time (96 hours) with agitation.)”. The Visual appearance result in data set [2] (1 mg/ml, TFA, Phosphate (7.4)) is given as “Clear”. In addition, the “cAMP antagonism % inhib” value at human GIP receptor amounted to 92%.

`CC[C@H](C)[C@H](NC(=O)[C@H](CCCCN)NC(=O)[C@H](CCC(=O)O)NC(=O)[C@H](CC(C)C)NC(=O)C(C)(C)NC(=O)[C@@H](NC(=O)[C@H](CO)NC(=O)[C@H](Cc1ccc(O)cc1)NC(=O)[C@H](CCC(=O)O)NC(=O)[C@H](CO)NC(=O)[C@@H](NC(=O)[C@H](Cc1ccccc1)NC(=O)[C@@H](NC(=O)CNC(=O)[C@@H](N)CCC(=O)O)[C@@H](C)O)[C@@H](C)CC)[C@@H](C)CC)C(=O)N[C@@H](CCCCNC(=O)CCCCCCCCCCCCCCC(=O)O)C(=O)N[C@@H](CCC(N)=O)C(=O)N[C@@H](CCC(N)=O)C(=O)N[C@@H](CCC(=O)O)C(=O)N[C@@H](Cc1ccccc1)C(=O)N[C@H](C(=O)N[C@@H](CCC(=O)O)C(=O)N[C@@H](Cc1c[nH]c2ccccc12)C(=O)N[C@@H](CC(C)C)C(=O)N[C@@H](CC(C)C)C(=O)N[C@@H](C)C(=O)N[C@@H](CCC(N)=O)C(=O)N[C@@H](CCCCN)C(=O)N1CCC[C@H]1C(=O)N[C@@H](CO)C(=O)N[C@@H](CO)C(=O)NCC(=O)N[C@@H](C)C(=O)N1CCC[C@H]1C(=O)N1CCC[C@H]1C(=O)N1CCC[C@H]1C(=O)N[C@@H](CO)C(=O)O)C(C)C` [AT673] (H-EGTFISEYSI[Aib]LEKIK(C16 diacid)QQEFVEWLLAQKPSSGAPPPS-OH; N-terminus assumed): the “Avr lag time (h)” value in data set [1] (1 mg/ml, TFA, Phosphate (7.4)) was “fnd (Fnd = fibrils not detected within experiment time (96 hours) with agitation.)”; in data set [1] (5 mg/ml, Na, MilliQ (8)), “fnd (Fnd = fibrils not detected within experiment time (96 hours) with agitation.)”; in data set [1] (7.5 mg/ml, Na, MilliQ (8)), “fnd (Fnd = fibrils not detected within experiment time (96 hours) with agitation.)”; in data set [1] (15 mg/ml, Na, MilliQ (8)), “fnd (Fnd = fibrils not detected within experiment time (96 hours) with agitation.)”. Further, the Visual appearance result in data set [2] (1 mg/ml, TFA, Phosphate (7.4)) is “Clear”; in data set [2] (5 mg/ml, Na, MilliQ (8)) it was “Clear”; in data set [2] (7.5 mg/ml, Na, MilliQ (8)), “Clear”; in data set [2] (15 mg/ml, Na, MilliQ (8)), “Clear”. For the same molecule, on human GIP receptor, the “cAMP antagonism % inhib” value came out at 94%.

For `CCCC[C@H](NC(=O)C(C)(C)NC(=O)[C@@H](NC(=O)[C@H](CO)NC(=O)[C@H](Cc1ccc(O)cc1)NC(=O)[C@H](CCC(=O)O)NC(=O)[C@H](CO)NC(=O)[C@@H](NC(=O)[C@H](Cc1ccccc1)NC(=O)[C@@H](NC(=O)CNC(=O)[C@@H](N)CCC(=O)O)[C@@H](C)O)[C@@H](C)CC)[C@@H](C)CC)C(=O)N[C@@H](CCC(=O)O)C(=O)N[C@@H](CCCCN)C(=O)N[C@H](C(=O)N[C@@H](CCCCNC(=O)COCCOCCNC(=O)COCCOCCNC(=O)CC[C@H](NC(=O)CCCCCCCCCCCCCCCCC(=O)O)C(=O)O)C(=O)N[C@@H](CCC(N)=O)C(=O)N[C@@H](CCC(N)=O)C(=O)N[C@@H](CCC(=O)O)C(=O)N[C@@H](Cc1ccccc1)C(=O)N[C@H](C(=O)N[C@@H](CCC(=O)O)C(=O)N[C@@H](Cc1c[nH]c2ccccc12)C(=O)N[C@@H](CC(C)C)C(=O)N[C@@H](CC(C)C)C(=O)N[C@@H](C)C(=O)N[C@@H](CCC(N)=O)C(=O)N[C@@H](CCCCN)C(=O)N1CCC[C@H]1C(=O)N[C@@H](CO)C(=O)N[C@@H](CO)C(=O)NCC(=O)N[C@@H](C)C(=O)N1CCC[C@H]1C(=O)N1CCC[C@H]1C(=O)N1CCC[C@H]1C(=O)N[C@@H](CO)C(=O)O)C(C)C)[C@@H](C)CC` [AT696] (H-EGTFISEYSI[Aib][Nle]EKIK([AEEA-AEEA-γGlu-C18 diacid])QQEFVEWLLAQKPSSGAPPPS-OH; N-terminus assumed), the “Avr lag time (h)” value in data set [1] (1 mg/ml, TFA, Phosphate (7.4)) is “fnd (Fnd = fibrils not detected within experiment time (96 hours) with agitation.)”; in data set [1] (5 mg/ml, Na, MilliQ (8)), “fnd (Fnd = fibrils not detected within experiment time (96 hours) with agitation.)”; in data set [1] (7.5 mg/ml, Na, MilliQ (8)), “fnd (Fnd = fibrils not detected within experiment time (96 hours) with agitation.)”; in data set [1] (15 mg/ml, Na, MilliQ (8)), “fnd (Fnd = fibrils not detected within experiment time (96 hours) with agitation.)”. Moreover, the Visual appearance result in data set [2] (1 mg/ml, TFA, Phosphate (7.4)) is given as “Clear”; in data set [2] (5 mg/ml, Na, MilliQ (8)) it was “Clear”; in data set [2] (7.5 mg/ml, Na, MilliQ (8)), “Clear”; in data set [2] (15 mg/ml, Na, MilliQ (8)), “Clear”. The “cAMP antagonism % inhib” value at human GIP receptor turned out to be 97%.
